Laboratory results: patent US6967102B1, “Nitric oxide manipulation of muscle satellite cell activation” (University of Manitoba, priority 1999, dated 2005)
“Also recorded” adds a separate entry of the source.

Columns and labels:
dystrophic muscle = experiment: Central nucleation index (CNI) in LTA and diaphragm of treated mdx mice; assay type: in vivo; conditions: mdx mice treated from 4–8 weeks of age; for CNI (central nucleation index) in DIA: diaphragm; for CNI (central nucleation index) in LTA: left tibialis anterior
Description: A study of 4 groups (n≈10/group) of mdx dystrophic mice treated with placebo, deflazacort, deflazacort plus L-NAME (a NOS inhibitor), or deflazacort plus L-arginine (a […]). Deflazacort was given by daily injection (ip) and L-NAME and L-arginine were given systemically in the drinking water.
When a normal peripherally nucleated myofiber degenerates, muscle precursor cells proliferate to varying extents (Grounds Md., McGeachie J K. (1989). Exp. Cell Res 180:429–439) and fuse to form centrally nucleated myotubes. These myotubes grow, or even hypertrophy compared to the original distribution of fiber size in that muscle, and span the injured area, (Anderson J E, Ovalle W K, Bressler B H. (1987). Anat. Rec. 219:243–257; Anderson J E, Bressler B H, Ovalle W K. (1988). J. Muscle Res. Cell Motil. 9:499–515; Ontell M, Feng K C, Klueber K, Dunn R F, Taylor F. (1984). Anat. Rec. 208:159 174) but remain centrally nucleated; thus the central nucleation index (CNI) is a useful measure of accumulated damage and repair. (Karpati G, Carpenter S. (1988). Muscle Nerve. 11:795–803). The CNI is a measurement well known in the art (see Karpati and Carpenter. 1988. Muscle Nerve. 11:795–803 and Anderson et al. 1996. Muscle Nerve. 19:1576–1585).
CNI is the proportion of all fibers in a section or a muscle which show a centrally-located nucleus (often given as a percentage). Since muscular dystrophy causes ongoing damage of muscle fibers, the successful repair of those fibers is marked by centrally-nucleated fibers which accumulate as a proportion of total fibers. Unsuccessful repair can be viewed as a loss of fibers in a section of a whole muscle; this too can produce a change in the ratio of centrally nucleated to total number of fibers (expressed as a percentage).
In this experiment, muscle tissues are collected from the treated animals. LTA and diaphragm muscles were sectioned, and counts of fibers with central nuclei and fibers with peripheral nuclei were performed. The largest diameter of the muscle section in each of the two sections of each muscle was used for counting, for 10 mice per group (2 muscles per mouse).
This is similar for the tibialis anterior muscle (LTA) and diaphragm at the age shown in the graph (which is 8 weeks of age) and is reliably used to monitor the progressive effect of dystrophic fiber injury on a muscle over time as the disease progresses. CNI will increase with age in the mdx mice (until the plateau discussed above). Mice are treated from 4–8 weeks of age with placebo, Deflazacort, D+L-NAME or D+L-Arginine.

muscle precursor cells = conditions: deflazacort treatment on mdx mice; cited from earlier work
muscle fibers = experiment: Marcaine / ethidium bromide staining and hypercontraction of isolated muscle fibers; assay type: cell-based, C57 mice
Description: (§1) Flexor digitorum brevis (FDB) muscles from normal C57 mice were dissected from the foot, and connective tissue, vessels and nerves were cleaned off the muscle. Following a 3 hr collagenase digestion (0.2% in DMEM), and viewed on a dissecting microscope, the muscle was separated into three bundles and the overlying connective tissue was peeled off the bundles using sharp forceps. The individual fibers were then teased off the remnant tendon and into smaller bundles. Bundles were gently triturated to separate single fibers using a wide mouth glass pipette with a polished end. The fibers were plated onto vitrogen-coated 35 mm dishes and grown in 1.5 ml of DMEM+10% Horse Serum (HS)+1% antimyotics+0.1% gentamycin.
Marcaine, an anaesthetic, was previously used to kill live fibers by adding it to a dish for 20–30 minutes (Cornelison, D. D. W., and Wold, B. J. (1997). Dev. Biol. 191:270–283) but the exact time of fiber death was never identified. Ethidium bromide (EtBr) is a fluorescent chemical which intercalates into the DNA of dead cells but is not taken up into live fibers. Media was mostly decanted from freshly plated fibers and the fibers were located using a microscope. 2–3 drops of either EtBr (2.5 μg/ml) in DMEM or Marcaine (0.05%)+EtBr (2.5 μg/ml) in DMEM were then added to the dish under continuous observation. Fiber hypercontraction was observed using a phase lens and the time course of EtBr nuclear staining was observed under UV light using a red filter. Photographs (ASA400 Fuji Colour Film) were taken to record staining of live, fixed, EtBr and Marcaine treated fibers and nuclei.

[1] = Muscle weight to body weight (edema) and haemorrhage after crush injury, normal mice; assay type: in vivo, normal mice (C57BL/6); conditions: ip treatment 30 min before crush; 0–30 min after injury
satellite cells [2] = experiment: Cell yield time course 0–30 min after crush injury of right tibialis anterior, normal mice; assay type: in vivo, normal mice (C57BL/6); conditions: L-Arg 225 mg/kg ip 30 min before crush; 0–30 min
satellite cells [3] = experiment: Isolated single muscle fiber culture, BrdU incorporation by satellite cells (activation); assay type: cell-based, C57 mice
Description: as §1
Live fibers exclude Ethidium bromide (EtBr), but 5 minutes after adding a myotoxin called marcaine (Bischoff R. (1990b). Development 109:943–952) to the medium, nuclei in fibers (and not in satellite cells) are fluorescent for EtBr. Hypercontraction occurs another 5–10 min later. Satellite cells exclude EtBr but take up an indicator of live cells, fluoresceine diacetate (FDA). Without this characterization, observations on satellite cells in a culture could include artefacts from membrane damage that initiates activation differently than any treatment under study. Satellite cells on our intact fibers were also quiescent after isolation. […] This conclusion is critical to any studies that propose to examine activation signals and their regulation.
Experimental Protocol: Fibers are isolated from flexor digitorum brevis (FDB) muscles on the plantar foot of 3 mice, then digested in collagenase (0.2% for 3 hr) and separated under a stereo microscope into small bundles (Yablonka-Reuveni, Z. and Rivera AJ. (1994). Dev. Biol. 164:588–603). […]
Fibers are incubated in 20% serum replacement medium (CSR; Yablonka-Reuveni, Z, and Rivera A J. (1994). Dev. Biol. 164:588–603). […] Activation is measured by counting labelled satellite cells per fiber (150–250 fibers/dish). […]

[4] = Marcaine (0.05%)+EtBr (2.5 μg/ml) in DMEM

D+L-Arginine
CNI (central nucleation index) in DIA (dystrophic muscle): decrease the CNI of DIA from the level seen with D+L-NAME
CNI (central nucleation index) in LTA (dystrophic muscle): increase in LTA CNI from deflazacort alone; also recorded: still significantly lower than placebo treatment

CC(=O)OCC(=O)[C@@]12N=C(C)O[C@@H]1C[C@H]1[C@@H]3CCC4=CC(=O)C=C[C@]4(C)[C@H]3[C@@H](O)C[C@@]12C [deflazacort]
increase in precursor cell proliferation and formation of new muscle fibers (muscle precursor cells): 1.5–2 fold
CNI (central nucleation index) in DIA (dystrophic muscle): significantly lower CNI after deflazacort
CNI (central nucleation index) in LTA (dystrophic muscle): 0.4

CCCCN1CCCCC1C(=O)Nc1c(C)cccc1C (stereo not drawn) [Marcaine]
time to EtBr staining of nuclei of live fibers after Marcaine (muscle fibers; [4]): 60 to 90 s
time to fiber hypercontraction (muscle fibers; [4]): 5 to 10 min
further time until hypercontraction after nuclei fluoresce (muscle fibers; marcaine added to the medium): 5 to 10 min
time after adding marcaine at which nuclei in fibers are fluorescent for EtBr (muscle fibers; marcaine added to the medium): 5 min

N=C(N)NCCC[C@H](N)C(=O)O [L-Arg, L-arginine]
muscle weight profile (RTA relative to LTA; muscle weight as proportion of body weight) [1]: little or no change in muscle weight profile
RSOL cell counts (satellite cells [2]): unchanged
RTA cell yield time course (satellite cells [2]): rose sharply at 5 min., and also stayed high
concentration showing maximal activation (satellite cells [3]; L-Arginine 50–1000 nM, initial results): 500 nM
satellite cell activation (marked by DNA synthesis) (satellite cells [3]; single normal fibers, L-arginine at various concentrations, 48 hr): stimulates activation in a dose-dependent manner
satellite cell migration away from fibers (satellite cells [3]; single normal fibers, L-arginine, 48 hr): stimulates satellite cell migration away from fibers
